Laboratory results taken from US4912227A, “1,2,8,8A-tetrahydrocyclopropa(c)pyrrolo(3,2-e)-indol-4-(5H)-ones and related compounds” (The Upjohn Company, priority 1985, dated 1990).
Values after ≈ are worked out from the molar mass of the structure shown.

Experiments:
[1] = tested on: murine L1210 tumor cells; assay: cytotoxic activity against murine L1210 tumor cells in suspension (3-day cell growth); assay type: cell-based; conditions: for IC50 / IC90: Mus musculus, 72 h; for IC50: read-out: L-1210 (3-Day Cell Growth) ID50; for IC90: read-out: L-1210 (3-Day Cell Growth) ID90
Protocol: Many of the compounds of the subject invention have useful cytotoxic activity against murine L1210 tumor cells in suspension, which is a standard model for such tests before the compounds are tested in humans. […] Following is a table showing the results of testing various compounds against L1210 in suspension using standard, well-known procedures. The compounds are identified by an internal designation called "U-" number. The structural identify of the "U-" numbered compounds is shown in Chart I.

[2] = tested on: Penicillium oxalicum; assay: antimicrobial activity
[3] = tested on: Klebsiella pneumonia; assay: antimicrobial activity
[4] = tested on: Bacillus subtilis; assay: antimicrobial activity
[5] = tested on: Salmonella schottmeulerri; assay: antimicrobial activity
[6] = tested on: Mycobacterium avium; assay: antimicrobial activity
[7] = tested on: Saccharomyces pastorianus; assay: antimicrobial activity
[8] = tested on: Proteus vulgaris; assay: antimicrobial activity
[9] = tested on: Escherichia coli; assay: antimicrobial activity
[10] = tested on: Staphylococcus aureus; assay: antimicrobial activity
[11] = tested on: Sarcina lutea; assay: antimicrobial activity
[12] = tested on: P388 leukemia; assay: antitumor activity in P388 leukemic mice, intraperitoneal; assay type: in vivo; conditions: for ILS at 0.1 mg/kg: at 0.10 mg./kg.
Description: These murine test systems are predictive for clinically useful human antitumor agents (see, for example, A. Geldin, J. M. Vendetti, J. S. MacDonald, F. M. Muggia, J. E. Henney and V. T. DeVita, European J. Cancer, Vol. 17, pp. 129-142, 1981; J. M. Vendetti, Cancer Treatment Reports, Vol. 67, pp. 767-772, 1983; and J. M. Vendetti, R. A. Wesley, and J. Plowman, Advances in Pharmacology and Chemotherapy, Vol. 20, pp. 1-20, 1984), and it is therefore presumed that the compounds of the subject invention will be useful in the control and treatment of cancer in humans when given, for example, intravenously in doses of 0.001 to about 10 mg. per kg. of body weight per day, the exact dose depending on the age, weight and condition of the patient, and on the frequency of administration. Following is a table showing the results of testing various compounds intraperitoneally against P388 leukemic mice using standard well-known procedures (In Vivo cancer, Models, NIH Publication No. 84-2635, 1984). The structural identify of the "U-" numbered compounds is shown in Chart I. In the table %ILS refers to percent increase in life span of treated animals over controls.

[13] = tested on: Lewis carcinoma; assay: lifespan of mice implanted with Lewis carcinoma; assay type: in vivo
Description: (§1) These characteristics are advantageous for antitumor agents.

[14] = solubility in aqueous solution; assay type: physicochemical
[15] = tested on: human lung tumor (Lx-1 carcinoma); assay: human lung tumor (Lx-1 carcinoma) xenograft in nude mice; assay type: in vivo
Description: as §1

[16] = stability in aqueous solution; assay type: physicochemical
[17] = tested on: B16 melanoma; assay: B16 melanoma implanted subcutaneously in mice, single intravenous dose; assay type: in vivo
Description: as §1

[18] = tested on: M5076 ovarian sarcoma; assay: lifespan of mice implanted with M5076 ovarian sarcoma; assay type: in vivo
Description: as §1

[19] = tested on: solid tumors; assay: activity against solid tumors; design: species or system mice; conditions: mouse, in vivo
Description: as §1

[20] = Mus musculus, P388, ip, read-out: P388 % ILS (percent increase in life span over controls)

## Cc1c[nH]c2c1C13CC1CN(S(C)(=O)=O)C3=CC2=O (stereo not drawn) [U-62,736]
[1]
  L-1210 (3-Day Cell Growth) ID50: 39 ng/mL
  L-1210 (3-Day Cell Growth) ID90: 180 ng/mL

## CC(=O)N1CC2CC23C1=CC(=O)c1[nH]cc(C)c13 (stereo not drawn) [U-66,664]
[1]
  IC50: 4.8 ng/mL (≈ 19.8 nM)
  IC90: 18 ng/mL (≈ 74.3 nM)

## CC(=O)N1CC(COS(C)(=O)=O)c2c1cc(O)c1[nH]cc(C)c21 (stereo not drawn) [U-66,665]
[2]
  activity against Penicillium oxalicum: have activity against
[3]
  activity against Klebsiella pneumonia: have activity against
[4]
  activity against Bacillus subtilis: have activity against
[1]
  IC50: 9 ng/mL (≈ 26.6 nM)
  IC90: 32 ng/mL (≈ 94.6 nM)
[5]
  activity against Salmonella schottmeulerri: have activity against
[6]
  activity against Mycobacterium avium: have activity against
[7]
  activity against Saccharomyces pastorianus: have activity against
[8]
  activity against Proteus vulgaris: have activity against
[9]
  activity against Escherichia coli: have activity against
[10]
  activity against Staphylococcus aureus: have activity against
[11]
  activity against Sarcina lutea: have activity against

## Cc1c[nH]c2c1C13CC1CN(C(=O)c1cc4ccccc4[nH]1)C3=CC2=O (stereo not drawn) [U-66,694, 1,2,8,8a-tetrahydro-7-methyl-2-(1H-indol-2-ylcarbonyl)cyclopropa[c]pyrrolo(3,2-c]indol-4(5H)-one]
[2]
  activity against Penicillium oxalicum: have activity against
[3]
  activity against Klebsiella pneumonia: have activity against
[4]
  activity against Bacillus subtilis: have activity against
[1]
  IC50: 0.15 ng/mL (≈ 0.437 nM)
  IC90: 0.34 ng/mL (≈ 0.99 nM)
[5]
  activity against Salmonella schottmeulerri: have activity against
[6]
  activity against Mycobacterium avium: have activity against
[12]; Mus musculus, P388, ip, at 0.63 mg./kg., read-out: P388 % ILS (percent increase in life span over controls)
  ILS at 0.63 mg/kg: 164%
[7]
  activity against Saccharomyces pastorianus: have activity against
[8]
  activity against Proteus vulgaris: have activity against
[9]
  activity against Escherichia coli: have activity against
[10]
  activity against Staphylococcus aureus: have activity against
[11]
  activity against Sarcina lutea: have activity against

## Cc1c[nH]c2c1C13CC1CNC3=CC2=O (stereo not drawn) [U-66,777]
[1]
  IC50: 180 ng/mL (≈ 899 nM)
  IC90: 920 ng/mL (≈ 4590 nM)

## Cc1c[nH]c2c1C13CC1CN(C(=O)c1ccccc1)C3=CC2=O (stereo not drawn) [U-66,866, 1,2,8,8a-tetrahydro-7-methyl-2-benzoylcyclopropa[c]pyrrolo[3,2-e]indol-4(5H)-one]
[1]
  IC50: 1.5 ng/mL (≈ 4.93 nM)
  IC90: 4.5 ng/mL (≈ 14.8 nM)
[12]; Mus musculus, P388, ip, at 12 mg./kg., read-out: P388 % ILS (percent increase in life span over controls)
  ILS at 12 mg/kg: 71%

## COc1c(O)ccc2cc(C(=O)N3CC4CC45C3=CC(=O)c3[nH]cc(C)c35)[nH]c12 (stereo not drawn) [U-67,785, 1,2,8,8a-tetrahydro-7-methyl-2-[(6-hydroxy-7-methoxy-1H-indol-2-yl)carbonyl]cyclopropa[c]pyrrolo[3,2-e]indol-4(5H)-one]
[1]
  IC50: 0.072 ng/mL (≈ 0.185 nM)
  IC90: 0.19 ng/mL (≈ 0.488 nM)
[12]; Mus musculus, P388, ip, at 0.06 mg./kg., read-out: P388 % ILS (percent increase in life span over controls)
  ILS at 0.06 mg/kg: 60%

## COc1ccc2[nH]c(C(=O)N3CC4CC45C3=CC(=O)c3[nH]cc(C)c35)cc2c1 (stereo not drawn) [U-67,786]
[1]
  IC50: 0.046 ng/mL (≈ 0.123 nM)
  IC90: 0.1 ng/mL (≈ 0.268 nM)

## Cc1c[nH]c2c1C13CC1CN(C(=O)c1cc4cc(NC(=O)c5cc6ccccc6[nH]5)ccc4[nH]1)C3=CC2=O (stereo not drawn) [U-68,415]
[1]
  IC50: 0.018 ng/mL (≈ 0.0359 nM)
  IC90: 0.044 ng/mL (≈ 0.0877 nM)
[12]; at 0.05 mg./kg.
  P388 cures: 4/6

## Cc1c[nH]c2c1C13CC1CN(C(=O)c1ccc4ccccc4n1)C3=CC2=O (stereo not drawn) [U-68,749, 1,2,8,8a-tetrahydro-7-methyl-2-(quinolinylcarbonyl)cyclopropa[c]pyrrolo[3,2-e]indol-4(5H)-one]
[1]
  IC50: 3.4 ng/mL (≈ 9.57 nM)
  IC90: 8.4 ng/mL (≈ 23.6 nM)

## Cc1c[nH]c2c1C13CC1CN(C(=O)c1ccc[nH]1)C3=CC2=O (stereo not drawn) [U-68,819, 1,2,8,8a-tetrahydro-7-methyl-2-(2-pyrrolylcarbonyl)cyclopropa[c]pyrrolo[3,2-e]indol-4(5H)-one]
[1]
  IC50: 0.48 ng/mL (≈ 1.64 nM)
  IC90: 1.5 ng/mL (≈ 5.11 nM)
[12]; Mus musculus, P388, ip, at 1 mg./kg., read-out: P388 % ILS (percent increase in life span over controls)
  ILS at 1 mg/kg: 71%

## Cc1c[nH]c2c1C13CC1CN(C(=O)c1cc4cc(NC(=O)c5ccccc5)ccc4[nH]1)C3=CC2=O (stereo not drawn) [U-68,846, 1,2,8,8a-tetrahydro-7-methyl-2-[[5-benzoylamino-1H-indol-2-yl]carbonyl]cyclopropa[c]pyrrolo[3,2-e]indol-4(5H)-one]
[1]
  IC50: 0.034 ng/mL (≈ 0.0735 nM)
  IC90: 0.096 ng/mL (≈ 0.208 nM)
[12]; Mus musculus, P388, ip, at 0.05 mg./kg., read-out: P388 % ILS (percent increase in life span over controls)
  ILS at 0.05 mg/kg: 82%

## Cc1c[nH]c2c1C13CC1CN(C(=O)c1cc4cc(NC(=O)c5cc6cc(NC(=O)c7ccccc7)ccc6[nH]5)ccc4[nH]1)C3=CC2=O (stereo not drawn) [U-68,880]
[1]
  IC50: 0.008 ng/mL (≈ 0.0129 nM)
  IC90: 0.019 ng/mL (≈ 0.0306 nM)
[12]; [20]
  ILS at 0.1 mg/kg: 71%

## Cc1c[nH]c2c1C13CC1CN(C(=O)c1cc4cc(NC#N)ccc4[nH]1)C3=CC2=O (stereo not drawn) [U-69,058, (1,2,8,8a)-tetrahydro-7-methyl-2-2[[5-cyanoamino-1H-indol-2-yl]carbonyl]cyclopropa[c]pyrrolo[3,2-e]indol-4(5H)-one]
[12]; Mus musculus, P388, ip, at 0.50 mg./kg., read-out: P388 % ILS (percent increase in life span over controls)
  ILS at 0.5 mg/kg: 96%

## Cc1c[nH]c2c1C13CC1CN(C(=O)c1cc4cc(NC(N)=O)ccc4[nH]1)C3=CC2=O (stereo not drawn) [U-69,059, 1,2,8,8a-tetrahydro-7-methyl-2-[[5-ureido-1H-indol-2-yl]carbonyl]cyclopropa[c]pyrrolo[3,2-e]indol-4(5H)-one]
[12]; at 0.5 mg./kg.
  P388 cures: 4/6

## Cc1c[nH]c2c1C13CC1CN(C(=O)c1cc4cc(NC(=O)c5cc6cc(NC(N)=O)ccc6[nH]5)ccc4[nH]1)C3=CC2=O (stereo not drawn) [U-69,060, 1,2,8,8a-tetrahydro-7-methyl-2-[[5-[[[5-ureido-1H-indol-2-yl]carbonyl]amino]-1H-indol-2-yl]carbonyl]cyclopropa[c]pyrrolo[3,2-a]indol-4(5H)-one]
[12]; [20]
  ILS at 0.1 mg/kg: 138%

## Cc1c[nH]c2c1[C@@]13C[C@@H]1CN(C(=O)c1cc4cc(NC(=O)c5cc6ccccc6o5)ccc4[nH]1)C3=CC2=O [U-73,975]
[13]
  lifespan of mice implanted with Lewis carcinoma: significantly increased the lifespan
[3]
  activity against Klebsiella pneumonia: has activity against
[14]
  solubility in aqueous solution: good solubility
[15]
  growth inhibition of human lung tumor (Lx-1 carcinoma) xenograft: significantly inhibited the growth
[16]
  stability in aqueous solution: good solubility and stability characteristics in aqueous solution
[17]
  increase in life span over control (non-drug treated) animals: 61%
[18]
  lifespan of mice implanted with M5076 ovarian sarcoma: significantly increased the lifespan
[9]
  activity against Escherichia coli: has activity against
[10]
  activity against Staphylococcus aureus: has activity against
[19]
  activity against solid tumors: particularly good activity against solid tumors
